In US9579358B2, “Compositions for binding to amyloid proteins” (LANCASTER UNIVERSITY BUSINESS ENTERPRISES LIMITED, priority 2011, dated 2017):
Non-standard residues stand in square brackets, D forms with d. Residues, ends and D or L forms follow the SMILES beside them. No end group written: not given here.

How the values were obtained:
[1] = target: T1, Aβ42 (Homo sapiens, UniProt P05067); test: Sandwich immunoassay (6E10) for Aβ oligomers; type: biochemical; conditions: 2:1 and 1:1 molar ratios of inhibitor:Aβ42; from 4 and 8 h
T1 construct: Recombinant Aβ42, Ultrapure, was purchased from rPeptide, Bogart, Ga., USA; purchased rPeptide, Bogart, Ga., USA
Experimental: These inhibitors were also tested in an immunoassay technique for the detection of early-stage Aβ oligomers. This assay uses monoclonal anti-Aβ antibody 6E10 to capture Aβ from solution and a biotinylated form of 6E10 as the detection antibody, in a sandwich system. Monomeric Aβ has only a single 6E10 epitope, which is occupied by the capture antibody, and so it cannot subsequently bind to the detection antibody. On the other hand, multimeric Aβ has binding sites available for both capture and detection, giving rise to a strong immunoassay signal. In Aβ aggregation time-course experiments, this assay produces a signal before the ThT method, when only small oligomers are present.
The sandwich immunoassay used follows the method described previously by Taylor et al (28, 30). Briefly, 96-well ELISA plates (Maxisorb) were coated with mouse monoclonal antibody 6E10 diluted 1:1000 in assay buffer (Tris-buffered saline (TBS), pH 7.4, containing 0.05% gamma globulins and 0.005% Tween 20). […] Enhancer solution was added and the plates were read using the time-resolved fluorescence setting for europium on a Wallac Victor 2 plate reader.
This is a more sensitive test than the ThT assay for the detection of early oligomeric forms of Aβ [28]. […] Enhancer solution was added and the plates were read on a Wallac Victor 2 plate reader, using the time-resolved fluorescence setting for europium.

[2] = tested on: APP/PS1 transgenic mice; test: Brain pathology after 21 days of treatment; type: in vivo; conditions: 100 nMol/kg i.p. once daily
Text: APPswe/PS1ΔE9 mice with a C57Bl/6 background (APP/PS1 mice) were obtained from the Jackson lab (http://research.iax.org/repository/alzheimers.html). To determine if Flu-RI-OR2-TAT crosses the blood brain barrier (Example 4), 2 male 17-months-old APP/PS1 animals and 2 16-months-old C57BL6 animals were used. To look at the effects of RI-OR2-TAT on mouse brain pathology (Example 5), 8 female 10-months-old APP/PS1 mice were used. The animals were housed in single cages in a temperature controlled holding room (21.5° C.±1) with 12:12 h light and dark cycle. Food and water was available ad libitum.
For Example 5, 4 animals were injected intraperitonially (i.p.) with 0.9% NaCl (vehicle control) and the other 4 with RI-OR2-TAT (100 nMol/Kg in 0.9% NaCl) once daily, for 21 days. On the 22nd day, the animals were perfused transcardially with ice-cold PBS and 4% paraformaldehyde and then the brains were removed and post-fixed in 4% ice cold paraformaldehyde.
All brains in paraformaldehyde were transferred to 30% sucrose overnight and then snap frozen with Envirofreez™ (Sigma, UK) and, using a Leica cryostat, 40 microns thick coronal sections were cut at anatomical regions of −2 to −3 bregma. Sections were preserved in cryoprotect with the first section taken at random and then every 5th section afterwards.
For Example 5, to stain for activated microglia, an inflammation response marker, sections were pretreated with 0.05 M sodium citrate buffer, pH 9, and incubated at 90° C. for 30 mins and stained with anti Iba-1 (1:2000 dilution, Wako 016-20001, Germany). For the oxidative stress marker, DNA denaturation was carried out with 2N HCl and the sections were stained for 8-oxo guanine (1:200 dilution, MAB3560, Millipore). Young immature neurons were detected by immunostaining for doublecortin (1:200 dilution, sc-66911, Santa Cruz Biotechnology). Total plaque load was quantified by immunostaining for β-amyloid (1:200 dilution, Invitrogen, 71-5800).
All sections were visualized using an Axio Scope 1 fluorescence microscope (Zeiss, Germany). For quantification, two images per section were taken from the cortex area with a 10× objective for 8-oxo guanine and β-amyloid staining, and a 100× objective for Iba1 staining, with a minimum of 5 sections visualized per animal. Image analysis was performed using multi threshold plug in Image J (NIH, USA).
Human oligomerised Aβ was measured using a kit purchased from Invitrogen, according to the manufacturer's instructions. Briefly, the right hemispheres from the brains of transgenic APP/PS1 mice treated with RI-OR2-TAT, or controls, were pooled separately and homogenized. Quantification of total protein was determined using the Bradford protein assay and was measured on a Nanophotometer (Implen, Germany). The homogenates were centrifuged at 100,000 g at 4° C. for 1 h. The supernatant was then diluted 1:10 before carrying out the sandwich ELISA, which measures soluble Aβ oligomer levels, but not amyloid monomers, as detailed in the manufacturer's protocol. The final AR oligomer values were determined following normalization of total protein levels.

[3] = tested on: SHSY-5Y cells; test: MTT cell viability assay, toxicity of PINPs alone; type: cell-based; conditions: 10 μM PINPs, 24 hours
Experimental: SHSY 5Y cells were grown and maintained in DMEM (Dulbecco's Modified Eagle Medium) supplemented with FBS under standard mammalian cell culture conditions. During treatment cells were kept in Optimem plus or minus peptide liposomes in 96 well plates at 20000 cells per well for 24 hours, again under standard culture conditions. For cell protection assays 5 μM of pre-aggregated Aβ1-42 was added at the same time as peptide liposomes. Cell viability was assessed for four wells for each treatment using a Promega CellTiter assay kit.

T1 sequence (P05067 672-713 limits assumed): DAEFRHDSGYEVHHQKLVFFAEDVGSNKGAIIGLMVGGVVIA

Row | development of immunoassay signal (oligomer formation) [1] | Molecule | increase of mean number of young doublecortin-expressing neurons in the dentate region [2] | reduction of cortical level of 8-oxo-guanine immunostaining [2] | reduction of number of activated microglia in the cortex ([2]; Iba1 immunostaining) | reduction of soluble Aβ oligomer levels in the brain ([2]; sandwich ELISA) | reduction of amyloid plaque load in the cortex ([2]; versus saline, β-amyloid immunostaining) | toxicity to cells [3] | Absorbance units (560 nm) ([3]; untreated cells 3.608, lysed cells 0.654)
1 | considerably reduced | CC(=O)N[C@H](CCCNC(=N)N)C(=O)NCC(=O)N[C@H](Cc1ccccc1)C(=O)N[C@H](Cc1ccccc1)C(=O)N[C@@H](C(=O)N[C@H](CC(C)C)C(=O)N[C@H](CCCCN)C(=O)NCC(=O)N[C@H](CCCNC(=N)N)C(=O)N[C@H](CCCNC(=N)N)C(=O)N[C@H](CCCNC(=N)N)C(=O)N[C@H](CCCNC(=N)N)C(=O)N[C@H](CCC(N)=O)C(=O)N[C@H](CCCNC(=N)N)C(=O)N[C@H](CCCNC(=N)N)C(=O)N[C@H](CCCCN)C(=O)N[C@H](CCCCN)C(=O)N[C@H](CCCNC(=N)N)C(=O)NCC(=O)N[C@H](Cc1ccc(O)cc1)C(N)=O)C(C)C [RI-OR2-TAT, Ac-rGffvlkGrrrrqrrkkrGy-NH2] (Ac-[dR]G[dF][dF][dV][dL][dK]G[dR][dR][dR][dR][dQ][dR][dR][dK][dK][dR]G[dY]-NH2) | 210% | 25% | 44% | 25% | 32% | – | –
2 | – | PINPs: RI-OR2-TAT covalently attached to nanoliposomes (cholesterol:sphingomyelin [1:1] with 2.5% maleimide) via an additional cysteine (Ac-[dR]G[dF][dF][dV][dL][dK]G[dR][dR][dR][dR][dQ][dR][dR][dK][dK][dR]G[dY][dC]; not fully specified (residue 21); also: C-terminal D-Cys coupled via its thiol to maleimide lipid of nanoliposome) | – | – | – | – | – | not toxic to cells | 3.610 Absorbance units
